In series [1] the test system is LNCaP. The experiment in a line: Cytotoxicity against human LNCaP cells assessed as reduction in cell viability incubated for 24 hrs by alamar blue assay. It counts as toxicity, cell-based.
Series [2] relates to MDA-MB-231. The experiment in a line: Cytotoxicity against human MDA-MB-231 cells assessed as reduction in cell viability incubated for 24 hrs by alamar blue assay. The series is classed as toxicity, cell-based. The following applies: mda-mb-231, 24 h.
Series [3] concerns HEK293. As to the kind of experiment: Cytotoxicity against HEK293 cells assessed as reduction in cell viability at 50 to 100 uM incubated for 72 hrs by alamar blue assay. It counts as toxicity, cell-based. The following applies: human, hek293, 72 h, dose 50-100 µM.
The test system of series [4] is MCF7. As to the kind of experiment: Cytotoxicity against human MCF7 cells assessed as reduction in cell viability at 50 to 100 uM incubated for 72 hrs by alamar blue assay. The series is classed as toxicity, cell-based. The following applies: mcf7, 72 h, dose 50-100 µM.
Series [5] can be described thus: Half life in CD-1 mouse at 30 mg/kg, ip measured for 6 hrs. It counts as ADME, organism-based. The following applies: in vivo.
Series [6] can be described thus: Drug concentration in CD-1 mouse plasma at 30 mg/kg, ip measured at 6 hrs post injection. The series is classed as ADME, organism-based.
Series [7] can be described thus: Toxicity in CD-1 mouse assessed as drug tolerance at 30 mg/kg, ip measured for 6 hrs. The series is classed as organism-based. The following applies: in vivo.
The subject of series [8] is MCF7. As to the kind of experiment: Cytotoxicity against human MCF7 cells assessed as reduction in cell viability incubated for 24 hrs by alamar blue assay. It counts as toxicity, cell-based. The following applies: mcf7, 24 h.
Series [9] has as its system HEK293. The experiment in a line: Cytotoxicity against HEK293 cells assessed as reduction in cell viability incubated for 24 hrs by alamar blue assay. It counts as toxicity, cell-based. The following applies: human, hek293, 24 h.
Series [10] deals with U2OS. As to the kind of experiment: Cytotoxicity against human U2OS cells assessed as reduction in cell viability at 50 to 100 uM incubated for 72 hrs by alamar blue assay. It counts as toxicity, cell-based. The following applies: dose 50-100 µM.
Series [11] has as its target T1, 5-hydroxytryptamine receptor 2B (Homo sapiens, UniProt P41595). The following applies: dose 32000.0 nM.
Description: Inhibition of [3H]LSD binding to 5-HT2B receptor (unknown origin) assessed as maximum inhibition at 32000 nM relative to control
Series [12] concerns HFF. As to the kind of experiment: Cytotoxicity against HFF cells assessed as reduction in cell viability incubated for 24 hrs by alamar blue assay. It counts as toxicity, cell-based. The following applies: human.
In series [13] the test system is U2OS. As to the kind of experiment: Cytotoxicity against human U2OS cells assessed as reduction in cell viability incubated for 24 hrs by alamar blue assay. It counts as toxicity, cell-based.
For series [14], the system named is HFF. The experiment in a line: Cytotoxicity against HFF cells assessed as reduction in cell viability at 50 to 100 uM incubated for 72 hrs by alamar blue assay. It counts as toxicity, cell-based. The following applies: human, dose 50-100 µM.
The target in series [15] is T1, 5-hydroxytryptamine receptor 2B. As to the kind of experiment: Inhibition of [3H]LSD binding to 5-HT2B receptor (unknown origin).
In series [16] the test system is LNCaP. As to the kind of experiment: Cytotoxicity against human LNCaP cells assessed as reduction in cell viability at 50 to 100 uM incubated for 72 hrs by alamar blue assay. It counts as toxicity, cell-based. The following applies: dose 50-100 µM.
The target in series [17] is KV channel (voltage-gated potassium channel family) (Homo sapiens, UniProt O43525+O43526+O95259+P16389+P17658+P22001+P22459+P22460+P48547+P51787+P56696+Q03721+Q09470+Q12809+Q14003+Q14721+Q16322+Q6PIU1+Q8NCM2+Q8TAE7+Q8TDN1+Q8TDN2+Q92953+Q96KK3+Q96L42+Q96PR1+Q96RP8+Q9BQ31+Q9H252+Q9H3M0+Q9NR82+Q9NS40+Q9NSA2+Q9NZV8+Q9UIX4+Q9UJ96+Q9UK17+Q9ULD8+Q9ULS6+Q9UQ05). The experiment in a line: Inhibition of KV channel (unknown origin) at 10 uM by antagonist ligand based assay relative to control. It counts as protein assay.

Series [18] relates to MDA-MB-231. The experiment in a line: Cytotoxicity against human MDA-MB-231 cells assessed as reduction in cell viability at 50 to 100 uM incubated for 72 hrs by alamar blue assay. The series is classed as toxicity, cell-based. The following applies: mda-mb-231, 72 h, dose 50-100 µM.

SMILES strings stand for the structures. Some results are limits rather than exact numbers.

T1 sequence (P41595 whole entry): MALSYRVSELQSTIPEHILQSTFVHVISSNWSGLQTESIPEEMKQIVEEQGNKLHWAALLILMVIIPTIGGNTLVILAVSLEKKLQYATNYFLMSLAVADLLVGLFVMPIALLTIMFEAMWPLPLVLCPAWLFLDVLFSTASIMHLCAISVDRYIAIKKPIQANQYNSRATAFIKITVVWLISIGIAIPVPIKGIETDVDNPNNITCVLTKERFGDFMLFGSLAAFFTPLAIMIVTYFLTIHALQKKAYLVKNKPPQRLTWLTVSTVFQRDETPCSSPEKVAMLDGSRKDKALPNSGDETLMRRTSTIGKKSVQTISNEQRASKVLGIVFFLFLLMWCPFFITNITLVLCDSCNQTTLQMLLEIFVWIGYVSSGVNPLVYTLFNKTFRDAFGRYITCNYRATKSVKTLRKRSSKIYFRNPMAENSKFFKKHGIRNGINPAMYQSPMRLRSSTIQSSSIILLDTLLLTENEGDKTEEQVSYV

In the case of `O=C(NCC(=O)N1CCCC1)Nc1ccc2cnccc2c1`, the Activity entry is reported as “Non-Toxic” in the series on LNCaP [1]; “Non-Toxic” in the series on MDA-MB-231 [2]; “Toxic” with HEK293 [3]; “Toxic” in the series on MCF7 [4]; “Non-Toxic” in series [7]; “Non-Toxic” with MCF7 [8]. The Activity entry in the series with HEK293 [9] is “Non-Toxic”; in the series on U2OS [10], “Toxic”; in the series on HFF [12] it was “Non-Toxic”; in the series with U2OS [13], “Non-Toxic”; in the series on HFF [14], “Toxic”; in the series with LNCaP [16], “Toxic”. Also, the Activity entry in the series with MDA-MB-231 [18] is “Toxic”. The half-life in series [5] was about 1 h. The concentration at 6 h in series [6] was found to be 208 nM. The Imax in series [11] was 50%. For the same molecule, in series [15], the inhibition constant Ki was over 15000 nM. The inhibition at 10 µM in [17] is -12%.

`Cn1ccc2cc3c(cc21)CCN3C(=O)Nc1cccnc1` displayed a Ki in series [15] of 18.5 nM. That is a double-digit nanomolar value.

The values above are taken from ChEMBL document CHEMBL5653619, “A potent, selective and cell-active allosteric inhibitor of protein arginine methyltransferase 3 (PRMT3)” (Angew Chem Int Ed Engl, 2015).
